In patent US9302999B2, “Substituted triazoles as herbicides” (E. I. DU PONT DE NEMOURS AND COMPANY, priority 2012, dated 2016):
Like-named read-outs stand apart in the source and are kept apart here.

Experiments:
Assay type in all cases: in vivo
[1] = tested on: pigweed (Amaranthus retroflexus); experiment: Test C pre-/postemergence: pigweed
Text: (§1) Seeds of plant species selected from blackgrass (Alopecurus myosuroides), bromegrass, downy (downy bromegrass, Bromus tectorum), foxtail, green (green foxtail, Setaria viridis), ryegrass, Italian (Italian ryegrass, Lolium multiflorum), winter wheat (Triticum aestivum), wild oat (Avena fatua), galium (catchweed bedstraw, Galium aparine), bermudagrass (Cynodon dactylon), surinam grass (Brachiaria decumbens), cocklebur (common cocklebur, Xanthium strumarium), corn (Zea mays), large crabgrass (Digitaria sanguinalis), woolly cupgrass (Eriochloa villosa), foxtail, giant (giant foxtail, Setaria faberii), goosegrass (Eleusine indica), johnsongrass (Sorghum halepense), kochia (Kochia scoparia), lambsquarters (Chenopodium album), morningglory (Ipomoea coccinea), nightshade (eastern black nightshade, Solanum ptycanthum), nutsedge, yellow (yellow nutsedge, Cyperus esculentus), pigweed (Amaranthus retroflexus), ragweed (common ragweed, Ambrosia elation), soybean (Glycine max), common (oilseed) sunflower (Helianthus annuus), Russian thistle (Salsola kali) and velvetleaf (Abutilon theophrasti) were planted into a blend of loam soil and sand and treated preemergence with test chemicals formulated in a non-phytotoxic solvent mixture which included a surfactant.
(§2) At the same time, plants selected from these crop and weed species and also barley (winter barley, Hordeum vulgare), canarygrass (Phalaris minor), chickweed (common chickweed, Stellaria media) windgrass (Apera spica-venti) and deadnettle (henbit deadnettle, Lamium amplexicaule) were planted in pots containing Redi-Earth® planting medium (Scotts Company, 14111 Scottslawn Road, Marysville, Ohio 43041) comprising spaghnum peat moss, vermiculite, wetting agent and starter nutrients and treated with postemergence applications of test chemicals formulated in the same manner. Plants ranged in height from 2 to 18 cm (1- to 4-leaf stage) for postemergence treatments.
(§3) Treated plants and controls were maintained in a greenhouse for 13 to 15 days, after which time all species were compared to controls and visually evaluated. Plant response ratings, summarized in Table C, are based on a scale of 0 to 100 where 0 is no effect and 100 is complete control. A dash (-) response means no test result.

corn (Zea mays) = experiment: Test A pre-/postemergence: corn; conditions: Zea mays, 240 h
How it was run: (§4)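 Visual 0–100 injury ratings (0 no effect, 100 complete control) taken about ten days after treatment, relative to untreated controls. Preemergence treatment was a directed soil spray; postemergence plants were 2–10 cm tall at one- to two-leaf stage. Soil: loam/sand blend.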

[2] = tested on: johnsongrass (Sorghum halepense); experiment: Test C pre-/postemergence: johnsongrass
Text: as §1, §2, §3

[3] = tested on: nutsedge, yellow (yellow nutsedge, Cyperus esculentus); experiment: Test C pre-/postemergence: nutsedge, yellow
Text: as §1, §2, §3

[4] = tested on: ryegrass, Italian (Italian ryegrass, Lolium multiflorum); experiment: Test C pre-/postemergence: ryegrass, Italian
Text: as §1, §2, §3

[5] = tested on: blackgrass (Alopecurus myosuroides); experiment: Test C pre-/postemergence: blackgrass
Text: as §1, §2, §3

[6] = tested on: barnyardgrass (Echinochloa crus-galli); experiment: Test A pre-/postemergence: barnyardgrass; conditions: Echinochloa crus-galli, 240 h; for pest or weed control at 125 g/ha: 125 g ai/ha; for pest or weed control at 500 g/ha: 500 g ai/ha
How it was run: as §4

[7] = tested on: large crabgrass (Digitaria sanguinalis); experiment: Test C pre-/postemergence: large crabgrass
Text: as §1, §2, §3

soybean (Glycine max) = experiment: Test C pre-/postemergence: soybean
Text: as §1, §2, §3

[8] = tested on: wheat (Triticum aestivum); experiment: Test A pre-/postemergence: wheat; conditions: Triticum aestivum, 240 h; for plant injury at 125 g/ha: 125 g ai/ha; for plant injury at 500 g/ha: 500 g ai/ha
How it was run: as §4

[9] = tested on: morningglory (Ipomoea spp.); experiment: Test A pre-/postemergence: morningglory; conditions: Ipomoea, 240 h; for pest or weed control at 125 g/ha: 125 g ai/ha; for pest or weed control at 500 g/ha: 500 g ai/ha
How it was run: as §4

[10] = Postemergence, 31 g ai/ha, scale 0 to 100 (0 no effect, 100 complete control)
[11] = Postemergence, 62 g ai/ha, scale 0 to 100 (0 no effect, 100 complete control)
[12] = Postemergence, 125 g ai/ha, scale 0 to 100, 0 no effect, 100 complete control
[13] = Postemergence, 250 g ai/ha, scale 0 to 100
[14] = Preemergence, 31 g ai/ha, scale of 0 to 100, 0 is no effect, 100 is complete control
[15] = Preemergence, 62 g ai/ha, scale of 0 to 100, 0 is no effect, 100 is complete control
[16] = Preemergence, 125 g ai/ha, scale 0 to 100, 0 no effect, 100 complete control
[17] = Preemergence, 250 g ai/ha, scale 0 to 100, 0 no effect, 100 complete control

## FC(F)(F)COc1nn(-c2ccc(C(F)(F)F)cc2)nc1Cc1ccnc(C(F)(F)F)c1 [Compound 14, 4-[[5-(2,2,2-trifluoroethoxy)-2-[4-(trifluoromethyl)phenyl]-2H-1,2,3-triazol-4-yl]methyl]-2-(trifluoromethyl)pyridine]
[1]; [10]
  Plant response rating, Pigweed: 45
[1]; [11]
  Plant response rating, Pigweed: 60
[1]; [12]
  Plant response rating, Pigweed: 80
[1]; [13]
  Plant response rating, Pigweed: 85
[1]; [14]
  Plant response rating, Pigweed: 100
[1]; [15]
  Plant response rating, Pigweed: 100
[1]; [16]
  Plant response rating, Pigweed: 100
[1]; [17]
  Plant response rating, Pigweed: 100
Corn (Zea mays); post-emergence, Postemergence, 125 g ai/ha, 0 to 100 scale, 0 is no effect, 100 is complete control, read-out: Corn plant response rating
  plant injury at 125 g/ha: 20%
Corn (Zea mays); post-emergence, Postemergence, 500 g ai/ha, visual rating on 0 to 100 scale (0 no effect, 100 complete control), approximately ten days, read-out: Corn plant response rating
  plant injury at 500 g/ha: 40%
Corn (Zea mays); pre-emergence, Preemergence, 125 g ai/ha, 0 to 100 scale (0 no effect, 100 complete control)
  Corn plant response rating (crop injury, 0 = no effect, 100 = complete kill) at 125 g/ha: 20%
Corn (Zea mays); pre-emergence, Preemergence, 500 g ai/ha, 0 to 100 scale, 0 is no effect, 100 is complete control
  Corn plant response rating (crop injury, 0 = no effect, 100 = complete kill) at 500 g/ha: 30%
[2]; [10]
  Plant response rating, Johnsongrass: 20
[2]; [11]
  Plant response rating, Johnsongrass: 20
[2]; [12]
  Plant response rating, Johnsongrass: 55
[2]; [13]
  Plant response rating, Johnsongrass: 75
[2]; [14]
  Plant response rating, Johnsongrass: 20
[2]; [15]
  Plant response rating, Johnsongrass: 45
[2]; [16]
  Plant response rating, Johnsongrass: 80
[2]; [17]
  Plant response rating, Johnsongrass: 85
[3]; [10]
  Plant response rating, Nutsedge, Yellow: 0
[3]; [11]
  Plant response rating, Nutsedge, Yellow: 0
[3]; [12]
  Plant response rating, Nutsedge, Yellow: 0
[3]; [13]
  Plant response rating, Nutsedge, Yellow: 0
[3]; [14]
  Plant response rating, Nutsedge, Yellow: 0
[3]; [15]
  Plant response rating, Nutsedge, Yellow: 0
[3]; [16]
  Plant response rating, Nutsedge, Yellow: 0
[3]; [17]
  Plant response rating, Nutsedge, Yellow: 0
[4]; [10]
  Plant response rating, Ryegrass, Italian: 30
[4]; [11]
  Plant response rating, Ryegrass, Italian: 35
[4]; [12]
  Plant response rating, Ryegrass, Italian: 35
[4]; [13]
  Plant response rating, Ryegrass, Italian: 40
[4]; [14]
  Plant response rating, Ryegrass, Italian: 10
[4]; [15]
  Plant response rating, Ryegrass, Italian: 35
[4]; [16]
  Plant response rating, Ryegrass, Italian: 60
[4]; [17]
  Plant response rating, Ryegrass, Italian: 85
[5]; [10]
  Plant response rating, Blackgrass: 15
[5]; [11]
  Plant response rating, Blackgrass: 40
[5]; [12]
  Plant response rating, Blackgrass: 60
[5]; [13]
  Plant response rating, Blackgrass: 85
[5]; [14]
  Plant response rating, Blackgrass: 5
[5]; Preemergence, 62 g ai/ha, scale 0 to 100, 0 no effect, 100 complete control
  Plant response rating, Blackgrass: 40
[5]; [16]
  Plant response rating, Blackgrass: 85
[5]; [17]
  Plant response rating, Blackgrass: 98
[6]; post-emergence, Postemergence, 0 to 100 scale, 0 is no effect, 100 is complete control, read-out: Barnyardgrass plant response rating
  pest or weed control at 125 g/ha: 80%
[6]; post-emergence, Postemergence, visual rating on 0 to 100 scale (0 no effect, 100 complete control), approximately ten days, read-out: Barnyardgrass plant response rating
  pest or weed control at 500 g/ha: 90%
[6]; pre-emergence, Preemergence, 0 to 100 scale (0 no effect, 100 complete control), read-out: Plant response rating, Barnyardgrass
  pest or weed control at 125 g/ha: 70%
[6]; pre-emergence, Preemergence, 0 to 100 scale, 0 is no effect, 100 is complete control, read-out: Plant response rating, Barnyardgrass
  pest or weed control at 500 g/ha: 90%
[7]; [10]
  Plant response rating, Crabgrass, Large: 10
[7]; [11]
  Plant response rating, Crabgrass, Large: 45
[7]; [12]
  Plant response rating, Crabgrass, Large: 45
[7]; [13]
  Plant response rating, Crabgrass, Large: 60
[7]; [14]
  Plant response rating, Crabgrass, Large: 95
[7]; [15]
  Plant response rating, Crabgrass, Large: 100
[7]; [16]
  Plant response rating, Crabgrass, Large: 100
[7]; [17]
  Plant response rating, Crabgrass, Large: 100
Soybean (Glycine max); [10]
  Plant response rating, Soybean: 25
Soybean (Glycine max); [11]
  Plant response rating, Soybean: 25
Soybean (Glycine max); [12]
  Plant response rating, Soybean: 30
Soybean (Glycine max); [13]
  Plant response rating, Soybean: 35
Soybean (Glycine max); [14]
  Plant response rating, Soybean: 0
Soybean (Glycine max); [15]
  Plant response rating, Soybean: 0
Soybean (Glycine max); [16]
  Plant response rating, Soybean: 0
Soybean (Glycine max); [17]
  Plant response rating, Soybean: 0
[8]; post-emergence, Postemergence, 0 to 100 scale, 0 is no effect, 100 is complete control, read-out: Wheat plant response rating
  plant injury at 125 g/ha: 30%
[8]; post-emergence, Postemergence, visual rating on 0 to 100 scale (0 no effect, 100 complete control), approximately ten days, read-out: Wheat plant response rating
  plant injury at 500 g/ha: 50%
[8]; pre-emergence, Preemergence, 0 to 100 scale (0 no effect, 100 complete control), read-out: Plant response rating, Wheat
  plant injury at 125 g/ha: 30%
[8]; pre-emergence, Preemergence, 0 to 100 scale, 0 is no effect, 100 is complete control, read-out: Plant response rating, Wheat
  plant injury at 500 g/ha: 50%
[9]; post-emergence, Postemergence, 0 to 100 scale, 0 is no effect, 100 is complete control, read-out: Morningglory plant response rating
  pest or weed control at 125 g/ha: 80%
[9]; post-emergence, Postemergence, visual rating on 0 to 100 scale (0 no effect, 100 complete control), approximately ten days, read-out: Morningglory plant response rating
  pest or weed control at 500 g/ha: 100%
[9]; pre-emergence, Preemergence, 0 to 100 scale (0 no effect, 100 complete control), read-out: Plant response rating, Morningglory
  pest or weed control at 125 g/ha: 60%
[9]; pre-emergence, Preemergence, 0 to 100 scale, 0 is no effect, 100 is complete control, read-out: Plant response rating, Morningglory
  pest or weed control at 500 g/ha: 80%
